{"source": "ChEMBL document CHEMBL4304757", "about": "“Synthetic heterocyclic candidates as promising α-glucosidase inhibitors: An overview” (Eur J Med Chem, 2019)", "key": {"Alpha glucosidase [1]": {"target": "T1, Alpha glucosidase (Homo sapiens, UniProt O43451+P10253+P14410+Q2M2H8)", "experiment": "Inhibition of alpha-glucosidase (unknown origin) using p-nitro phenyl glucopyranoside as substrate preincubated for 10 mins followed by substrate addition measured after 30 mins", "type": "protein assay"}, "[2]": {"experiment": "Inhibition of yeast alpha-glucosidase using p-nitrophenyl-alpha-d-glucopyranoside as substrate preincubated for 10 mins followed by substrate addition measured after 20 mins", "design": "species or system Saccharomyces cerevisiae"}, "Alpha glucosidase [3]": {"target": "T1, Alpha glucosidase", "experiment": "Inhibition of alpha-glucosidase (unknown origin) using pNPG as substrate preincubated for 10 mins followed by substrate addition measured after 30 mins", "type": "protein assay"}, "Alpha glucosidase [4]": {"target": "T1, Alpha glucosidase", "experiment": "Inhibition of alpha-glucosidase (unknown origin) using p-nitrophenyl-alpha-d-glucopyranoside as substrate preincubated for 10 mins followed by substrate addition measured after 30 mins", "type": "protein assay"}, "[5]": {"experiment": "Inhibition of yeast alpha-glucosidase using p-nitrophenyl-alpha-d-glucopyranoside as substrate preincubated for 5 mins followed by substrate addition measured after 5 mins", "design": "species or system Saccharomyces cerevisiae"}, "Alpha glucosidase [6]": {"target": "T1, Alpha glucosidase", "experiment": "Inhibition of alpha-glucosidase (unknown origin) using p-nitrophenyl-alpha-d-glucopyranoside as substrate preincubated for 5 mins followed by substrate addition measured after 30 mins", "type": "protein assay"}}, "data": [{"compound": "O=C(N/N=C/c1ccccc1F)c1nc(-c2cc3ccccc3oc2=O)cs1", "values": [{"measurement": "IC50", "setting": "Alpha glucosidase [1]", "result": "6.2 to 81", "unit": "µM"}]}, {"compound": "N#CC1=C(N)Oc2c(c(=O)[nH]c3c2ccc2ccccc23)C1c1ccncc1", "note": "(stereo unspecified)", "values": [{"measurement": "IC50", "setting": "[2]", "result": "10 to 172", "unit": "µM"}]}, {"compound": "COc1ccc(/C=N/NC(=O)c2cc3ccccc3[nH]2)c(I)c1O", "values": [{"measurement": "IC50", "setting": "Alpha glucosidase [3]", "result": "2.3 to 226", "unit": "µM"}]}, {"compound": "O=C(NNC(=S)Nc1ccc(C(F)(F)F)cc1)c1ccc(-c2nnc(-c3ccccc3Cl)o2)cc1", "values": [{"measurement": "IC50", "setting": "Alpha glucosidase [4]", "result": 0.6, "unit": "µM"}]}, {"compound": "O=C(NNC(=S)Nc1ccc(Cl)cc1)c1ccc(-c2nnc(-c3ccccc3Cl)o2)cc1", "values": [{"measurement": "IC50", "setting": "Alpha glucosidase [4]", "result": "0.4 to 38", "unit": "µM"}]}, {"compound": "O=C(NNC(=S)Nc1cccc([N+](=O)[O-])c1)c1ccc(-c2nnc(-c3ccccc3Cl)o2)cc1", "values": [{"measurement": "IC50", "setting": "Alpha glucosidase [4]", "result": "0.4 to 38", "unit": "µM"}]}, {"compound": "FC(F)(F)c1ccc(-c2[nH]c3ccccc3c2-c2nc(-c3ccccc3)c(-c3ccccc3)n2-c2ccccc2)cc1", "values": [{"measurement": "IC50", "setting": "Alpha glucosidase [3]", "result": "8.3 to 98", "unit": "µM"}]}, {"compound": "O=C(N/N=C/c1cc(O)c(O)c(O)c1)c1cc2ccccc2[nH]1", "values": [{"measurement": "IC50", "setting": "Alpha glucosidase [3]", "result": 2.3, "unit": "µM"}]}, {"compound": "O=C(N/N=C/c1cccc(Br)c1)c1nc(-c2cc3ccccc3oc2=O)cs1", "values": [{"measurement": "IC50", "setting": "Alpha glucosidase [1]", "result": "6.2 to 81", "unit": "µM"}]}, {"compound": "COc1ccc(-n2c(-c3c(-c4cccc(Br)c4)[nH]c4ccccc34)nc(-c3ccccc3)c2-c2ccccc2)cc1", "values": [{"measurement": "IC50", "setting": "Alpha glucosidase [3]", "result": "8.3 to 98", "unit": "µM"}]}, {"compound": "O=C(NNC(=S)Nc1ccc(F)cc1)c1ccc(-c2nnc(-c3ccccc3Cl)o2)cc1", "values": [{"measurement": "IC50", "setting": "Alpha glucosidase [4]", "result": "0.4 to 38", "unit": "µM"}]}, {"compound": "N#CC1=C(N)Oc2c(c(=O)[nH]c3c2ccc2ccccc23)C1c1ccc(F)cc1", "note": "(stereo unspecified)", "values": [{"measurement": "IC50", "setting": "[2]", "result": 15, "unit": "µM"}]}, {"compound": "O=[N+]([O-])c1ccc2cc(-c3nnc(-c4ccc(O)cc4O)o3)oc2c1", "values": [{"measurement": "IC50", "setting": "[5]", "result": "12 to 162", "unit": "µM"}]}, {"compound": "N#CC1=C(N)Oc2c(c(=O)[nH]c3c2ccc2ccccc23)C1c1ccc(Cl)cc1", "note": "(stereo unspecified)", "values": [{"measurement": "IC50", "setting": "[2]", "result": 10, "unit": "µM"}]}, {"compound": "COc1ccc(-c2nnc(-c3cc4ccc([N+](=O)[O-])cc4o3)o2)c(O)c1", "values": [{"measurement": "IC50", "setting": "[5]", "result": "12 to 162", "unit": "µM"}]}, {"compound": "N#CC1=C(N)Oc2c(c(=O)[nH]c3c2ccc2ccccc23)C1c1ccccc1", "note": "(stereo unspecified)", "values": [{"measurement": "IC50", "setting": "[2]", "result": "10 to 172", "unit": "µM"}]}, {"compound": "O=C(N/N=C/c1ccc(O)c(O)c1)c1nc(-c2cc3ccccc3oc2=O)cs1", "values": [{"measurement": "IC50", "setting": "Alpha glucosidase [1]", "result": "6.2 to 81", "unit": "µM"}]}, {"compound": "O=C(N/N=C/c1ccc(C(F)(F)F)cc1)c1nc(-c2cc3ccccc3oc2=O)cs1", "values": [{"measurement": "IC50", "setting": "Alpha glucosidase [1]", "result": "6.2 to 81", "unit": "µM"}]}, {"compound": "COc1ccc(O)c(/C=N/NC(=O)c2cc3ccccc3[nH]2)c1", "values": [{"measurement": "IC50", "setting": "Alpha glucosidase [3]", "result": "2.3 to 226", "unit": "µM"}]}, {"compound": "COc1ccc(-n2c(-c3c(-c4ccc(Cl)cc4)[nH]c4ccc(Cl)cc34)nc(-c3ccccc3)c2-c2ccccc2)cc1", "values": [{"measurement": "IC50", "setting": "Alpha glucosidase [3]", "result": "8.3 to 98", "unit": "µM"}]}, {"compound": "O=[N+]([O-])c1ccc2cc(-c3nnc(-c4ccccc4F)o3)oc2c1", "values": [{"measurement": "IC50", "setting": "[5]", "result": "12 to 162", "unit": "µM"}]}, {"compound": "COc1ccc(/C=N/NC(=O)c2cc3ccccc3[nH]2)cc1O", "values": [{"measurement": "IC50", "setting": "Alpha glucosidase [3]", "result": "2.3 to 226", "unit": "µM"}]}, {"compound": "CCOC(=O)C1=C(Nc2cccc(Br)c2)C[C@@H](c2ccc(Cl)cc2)N(c2cccc(Br)c2)[C@@H]1c1ccc(Cl)cc1", "values": [{"measurement": "IC50", "setting": "Alpha glucosidase [4]", "result": 2.3, "unit": "µM"}]}, {"compound": "COc1cc(C2C(C#N)=C(N)Oc3c2c(=O)[nH]c2c3ccc3ccccc32)ccc1O", "note": "(stereo unspecified)", "values": [{"measurement": "IC50", "setting": "[2]", "result": "10 to 172", "unit": "µM"}]}, {"compound": "O=C(N/N=C/c1ccc(O)c(O)c1)c1cc2ccccc2[nH]1", "values": [{"measurement": "IC50", "setting": "Alpha glucosidase [3]", "result": "2.3 to 226", "unit": "µM"}]}, {"compound": "O=C(NNC(=S)Nc1ccc(Cl)c(Cl)c1)c1ccc(-c2nnc(-c3ccccc3Cl)o2)cc1", "values": [{"measurement": "IC50", "setting": "Alpha glucosidase [4]", "result": "0.4 to 38", "unit": "µM"}]}, {"compound": "O=C(N/N=C/c1c(O)cc(O)cc1O)c1cc2ccccc2[nH]1", "values": [{"measurement": "IC50", "setting": "Alpha glucosidase [3]", "result": "2.3 to 226", "unit": "µM"}]}, {"compound": "Cc1cs/c(=N\\C(=O)c2ccccc2Cl)n1-c1cc(Cl)c(Cl)cc1Cl", "values": [{"measurement": "IC50", "setting": "Alpha glucosidase [6]", "result": "0.1 to 0.15", "unit": "µM"}]}, {"compound": "Clc1cccc(-c2[nH]c3ccccc3c2-c2nc(-c3ccccc3)c(-c3ccccc3)n2-c2ccccc2)c1", "values": [{"measurement": "IC50", "setting": "Alpha glucosidase [3]", "result": "8.3 to 98", "unit": "µM"}]}, {"compound": "O=[N+]([O-])c1ccc2cc(-c3nnc(-c4ccc(O)c(O)c4)o3)oc2c1", "values": [{"measurement": "IC50", "setting": "[5]", "result": "12 to 162", "unit": "µM"}]}, {"compound": "N#CC1=C(N)Oc2c(c(=O)[nH]c3c2ccc2ccccc23)C1c1ccc(O)cc1", "note": "(stereo unspecified)", "values": [{"measurement": "IC50", "setting": "[2]", "result": "10 to 172", "unit": "µM"}]}, {"compound": "O=C(N/N=C/c1cc(O)cc(O)c1)c1cc2ccccc2[nH]1", "values": [{"measurement": "IC50", "setting": "Alpha glucosidase [3]", "result": "2.3 to 226", "unit": "µM"}]}, {"compound": "O=C(NNC(=S)Nc1ccc(Br)cc1)c1ccc(-c2nnc(-c3ccccc3Cl)o2)cc1", "values": [{"measurement": "IC50", "setting": "Alpha glucosidase [4]", "result": "0.4 to 38", "unit": "µM"}]}, {"compound": "CCOC(=O)C1=C(Nc2cccc([N+](=O)[O-])c2)C[C@@H](c2ccc(C)cc2)N(c2cccc([N+](=O)[O-])c2)[C@@H]1c1ccc(C)cc1", "values": [{"measurement": "IC50", "setting": "Alpha glucosidase [4]", "result": "2.3 to 29", "unit": "µM"}]}, {"compound": "O=C(N/N=C/c1ccc(O)c(F)c1)c1nc(-c2cc3ccccc3oc2=O)cs1", "values": [{"measurement": "IC50", "setting": "Alpha glucosidase [1]", "result": "6.2 to 81", "unit": "µM"}]}, {"compound": "Cc1ccc(NC(=S)NNC(=O)c2ccc(-c3nnc(-c4ccccc4Cl)o3)cc2)cc1", "values": [{"measurement": "IC50", "setting": "Alpha glucosidase [4]", "result": "0.4 to 38", "unit": "µM"}]}, {"compound": "O=C(N/N=C/c1ccc(O)cc1)c1nc(-c2cc3ccccc3oc2=O)cs1", "values": [{"measurement": "IC50", "setting": "Alpha glucosidase [1]", "result": "6.2 to 81", "unit": "µM"}]}, {"compound": "O=[N+]([O-])c1ccc2cc(-c3nnc(-c4ccc(F)cc4)o3)oc2c1", "values": [{"measurement": "IC50", "setting": "[5]", "result": "12 to 162", "unit": "µM"}]}, {"compound": "Cc1ccc(C2C(C#N)=C(N)Oc3c2c(=O)[nH]c2c3ccc3ccccc32)cc1", "note": "(stereo unspecified)", "values": [{"measurement": "IC50", "setting": "[2]", "result": "10 to 172", "unit": "µM"}]}, {"compound": "COc1cc(/C=N/NC(=O)c2cc3ccccc3[nH]2)ccc1O", "values": [{"measurement": "IC50", "setting": "Alpha glucosidase [3]", "result": "2.3 to 226", "unit": "µM"}]}, {"compound": "O=C(NNC(=S)Nc1ccccc1F)c1ccc(-c2nnc(-c3ccccc3Cl)o2)cc1", "values": [{"measurement": "IC50", "setting": "Alpha glucosidase [4]", "result": 0.4, "unit": "µM"}]}, {"compound": "N#CC1=C(N)Oc2c(c(=O)[nH]c3c2ccc2ccccc23)C1c1ccc(Br)cc1", "note": "(stereo unspecified)", "values": [{"measurement": "IC50", "setting": "[2]", "result": "10 to 172", "unit": "µM"}]}, {"compound": "Cc1cs/c(=N\\C(=O)c2cc3ccccc3oc2=O)n1-c1cc(Cl)c(Cl)cc1Cl", "values": [{"measurement": "IC50", "setting": "Alpha glucosidase [6]", "result": "0.1 to 0.15", "unit": "µM"}]}, {"compound": "O=[N+]([O-])c1ccc2cc(-c3nnc(-c4ccc(O)cc4)o3)oc2c1", "values": [{"measurement": "IC50", "setting": "[5]", "result": "12 to 162", "unit": "µM"}]}, {"compound": "COc1cccc(NC(=S)NNC(=O)c2ccc(-c3nnc(-c4ccccc4Cl)o3)cc2)c1", "values": [{"measurement": "IC50", "setting": "Alpha glucosidase [4]", "result": "0.4 to 38", "unit": "µM"}]}, {"compound": "O=[N+]([O-])c1ccc2cc(-c3nnc(-c4cccc(F)c4)o3)oc2c1", "values": [{"measurement": "IC50", "setting": "[5]", "result": "12 to 162", "unit": "µM"}]}]}
